According to PMC9217908, “Screening of commonly prescribed drugs for effects on the CAT1-mediated transport of L-arginine and arginine derivatives” (Amino Acids, 2022):
Where two headings read alike, the source gives them in different places.

Key:
[1] = molecular target: T1, CAT1 (cationic amino acid transporter 1, CAT1/SLC7A1) (Homo sapiens, UniProt P30825); assay: inhibition of [3H]-L-arginine uptake in HEK-CAT1 cells, Lineweaver-Burk; type: cell-based; conditions: substrate L-arginine; competitive
T1 construct: full-length human transporter stably transfected in HEK cells (HEK-CAT1); net uptake against HEK-VC vector control cells

[2] = molecular target: T1, CAT1 (cationic amino acid transporter 1, CAT1/SLC7A1); assay: cell-based; parameters: species or system HEK-CAT1 (HEK293 stably transfected); Inhibition of net CAT1-mediated [3H]-L-arginine (100 uM) uptake, 5 min, scintillation counting, vector control subtracted; conditions: HEK293, L-arginine 100 uM as substrate; for inhibition at 20 µM: read-out: % Inhibition of L-arginine uptake at 20 µM; for inhibition at 200 µM: read-out: % Inhibition of L-arginine uptake at 200 µM
Summary of the method: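 HEK-CAT1 and vector-control HEK-VC cells took up [3H]-L-arginine (100 μM) for 5 min, with or without drug at 20 or 200 µM; [3H]-L-homoarginine or [3H]-ADMA uptake ran 2.5 min. Net uptake is CAT1 minus VC cells, and inhibition (%) = 100 − (V/V0 × 100). Negative values mean stimulated uptake.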

[3] = molecular target: T1, CAT1 (cationic amino acid transporter 1, CAT1/SLC7A1); assay: cell-based; parameters: species or system HEK-CAT1 (HEK293 stably transfected); Inhibition of net CAT1-mediated [3H]-L-homoarginine (1 uM) uptake, 2.5 min, scintillation counting, vector control subtracted; conditions: HEK293, L-homoarginine 1 uM as substrate; for inhibition at 20 µM: read-out: % Inhibition of L-homoarginine uptake at 20 µM; for inhibition at 200 µM: read-out: % Inhibition of L-homoarginine uptake at 200 µM
Summary of the method: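 HEK-CAT1 cells with HEK-VC vector controls; [3H]-L-homoarginine (1 μM) uptake over 2.5 min with or without test compound at 20 µM or 200 µM. Net CAT1 uptake (CAT1 minus VC) gives inhibition (%) = 100 – (V/V0 × 100). Negative values mean stimulated uptake; n = 6–9 from at least two independent experiments.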

[4] = molecular target: T1, CAT1 (cationic amino acid transporter 1, CAT1/SLC7A1); assay: cell-based; parameters: species or system HEK-CAT1 (HEK293 stably transfected); Inhibition of net CAT1-mediated [3H]-ADMA (1 uM) uptake, 2.5 min, scintillation counting, vector control subtracted; conditions: HEK293, ADMA 1 uM as substrate; for inhibition at 20 µM: read-out: % Inhibition of ADMA uptake at 20 µM; for inhibition at 200 µM: read-out: % Inhibition of ADMA uptake at 200 µM
Summary of the method: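 HEK cells expressing CAT1 and vector-control cells took up [^3H]-L-arginine for 5 min, or [^3H]-L-homoarginine or [^3H]-ADMA (1 μM) for 2.5 min, with or without drug at 20 or 200 µM. Net CAT1 uptake was CAT1 cells minus control cells, and inhibition (%) = 100 − V/V0×100. Negative values mean stimulation; n = 6–9.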

[5] = molecular target: T1, CAT1 (cationic amino acid transporter 1, CAT1/SLC7A1); assay: inhibition of [3H]-L-homoarginine uptake in HEK-CAT1 cells; type: cell-based; conditions: read-out: % inhibition at 20 μM
[6] = molecular target: T1, CAT1 (cationic amino acid transporter 1, CAT1/SLC7A1); assay: inhibition of [3H]-L-arginine uptake in HEK-CAT1 cells; type: cell-based
Text: inhibition of [3H]-L-arginine uptake in HEK-CAT1 cells on CAT1 (cationic amino acid transporter 1, CAT1/SLC7A1) | verapamil inhibited CAT1-mediated uptake of L-arginine, L-homoarginine, and ADMA with IC50 values

T1 sequence (P30825 whole entry): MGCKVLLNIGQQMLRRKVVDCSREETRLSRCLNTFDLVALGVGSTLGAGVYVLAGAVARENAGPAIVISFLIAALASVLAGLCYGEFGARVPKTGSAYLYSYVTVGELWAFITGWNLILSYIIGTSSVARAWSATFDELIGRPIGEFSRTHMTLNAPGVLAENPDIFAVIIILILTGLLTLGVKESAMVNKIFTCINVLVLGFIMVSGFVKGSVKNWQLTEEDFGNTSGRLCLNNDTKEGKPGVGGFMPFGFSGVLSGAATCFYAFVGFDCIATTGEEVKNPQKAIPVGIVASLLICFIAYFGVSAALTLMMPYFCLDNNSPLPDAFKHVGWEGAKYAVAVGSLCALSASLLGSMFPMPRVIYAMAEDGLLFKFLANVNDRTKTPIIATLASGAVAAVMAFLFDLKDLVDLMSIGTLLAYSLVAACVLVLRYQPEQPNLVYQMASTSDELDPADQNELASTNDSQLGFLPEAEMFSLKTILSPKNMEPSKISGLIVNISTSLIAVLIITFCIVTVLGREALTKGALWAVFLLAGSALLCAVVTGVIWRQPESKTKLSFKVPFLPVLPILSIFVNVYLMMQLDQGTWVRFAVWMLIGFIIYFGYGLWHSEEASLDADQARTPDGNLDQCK

Compound	inhibition of [3H]-L-arginine uptake in HEK-CAT1 cells, Lineweaver-Burk [1]	inhibition at 20 µM [2]	inhibition at 200 µM [2]	inhibition at 20 µM [3]	inhibition at 200 µM [3]	inhibition at 20 µM [4]	inhibition at 200 µM [4]	inhibition at 20 µM [5]	IC50 [6]
CN(C)C(=N)NCCC[C@H](N)C(=O)O [ADMA]	competitive inhibition pattern for L-homoarginine and ADMA	–	–	–	–	–	–	–	–
N=C(N)NCCCC[C@H](N)C(=O)O [L-homoarginine]	competitive inhibition pattern for L-homoarginine and ADMA	–	–	–	–	–	–	–	–
COc1ccnc(C[S+]([O-])c2nc3cc(OC(F)F)ccc3[nH]2)c1OC (stereo not drawn) [Pantoprazole]	–	16.7 ± 2.1%	10.5 ± 0.9%	15.2 ± 1.8%	12.5 ± 0.3%	-4.5 ± 1.7%	-9.9 ± 3.1%	–	–
CC[C@H](C)C(=O)O[C@H]1C[C@H](O)C=C2C=C[C@H](C)[C@H](CC[C@@H](O)C[C@@H](O)CC(=O)O)[C@H]21 [Pravastatin]	–	0.2 ± 4.4%	4.1 ± 2.6%	-0.4 ± 3.8%	-10.1 ± 1.4%	-18.5 ± 3.3%	-4.4 ± 9.6%	–	–
C[C@]12C=CC(=O)C=C1CC[C@@H]1[C@@H]2[C@@H](O)C[C@@]2(C)[C@H]1CC[C@]2(O)C(=O)CO [Prednisolone]	–	12.5 ± 4.1%	-21.4 ± 1.3%	-11.1 ± 5.8%	-16.5 ± 2.4%	-3.3 ± 6.9%	13.4 ± 4.7%	–	–
C[C@]12C=CC(=O)C=C1CC[C@@H]1[C@@H]2C(=O)C[C@@]2(C)[C@H]1CC[C@]2(O)C(=O)CO [Prednisone]	–	13.9 ± 3.4%	19.1 ± 0.8%	12.5 ± 2.7%	13.2 ± 2.6%	-33.3 ± 2.3%	-16.9 ± 2.24%	–	–
CCCN(CCC)S(=O)(=O)c1ccc(C(=O)O)cc1 [Probenecid]	–	-2.6 ± 3.2%	0.4 ± 2.1%	-2.9 ± 2.8%	-1.1 ± 2.2%	-24.9 ± 8.3%	-17.5 ± 1.8%	–	–
CC(CN1c2ccccc2Sc2ccccc21)N(C)C (stereo not drawn) [Promethazine]	–	-1.3 ± 7.1%	14.4 ± 6%	4.3 ± 2%	14 ± 0.9%	4.2 ± 2%	-9.2 ± 1.2%	–	–
CC(C)NCC(O)COc1cccc2ccccc12 (stereo not drawn) [Propranolol]	–	-0.9 ± 8.1%	-1.1 ± 7.8%	-21.6 ± 0.7%	-3.5 ± 2.1%	-27.2 ± 3.6%	-36.3 ± 9.5%	–	–
CCc1nc(N)nc(N)c1-c1ccc(Cl)cc1 [Pyrimethamine]	–	6.9 ± 9.6%	31.2 ± 2.3%	-25.8 ± 15.5%	31.6 ± 2.7%	-37.1 ± 7.2%	23.4 ± 0.3%	–	–
C=C[C@H]1CN2CC[C@H]1C[C@@H]2[C@@H](O)c1ccnc2ccc(OC)cc12 [Quinidine]	–	29.1 ± 2.8%	2.7 ± 1%	4.4 ± 6.2%	5.9 ± 1.9%	4.4 ± 6.2%	-19.6 ± 7.7%	–	–
CCOC(=O)[C@H](CCc1ccccc1)N[C@@H](C)C(=O)N1[C@H](C(=O)O)C[C@@H]2CCC[C@@H]21 [Ramipril]	–	0.3 ± 12%	-5.8 ± 2.3%	-0.7 ± 11.5%	-6.5 ± 2%	0.1 ± 6.9%	-31.1 ± 6.9%	–	–
CNC(=C[N+](=O)[O-])NCCSCc1ccc(CN(C)C)o1 [Ranitidine]	–	7.8 ± 1.8%	2.9 ± 3.9%	-4 ± 0.4%	6.8 ± 0.6%	-0.5 ± 5.8%	6.1 ± 3.4%	–	–
COC(=O)[C@H]1[C@H]2C[C@@H]3c4[nH]c5cc(OC)ccc5c4CCN3C[C@H]2C[C@@H](OC(=O)c2cc(OC)c(OC)c(OC)c2)[C@@H]1OC [Reserpine]	–	4.7 ± 7.9%	5.2 ± 2.9%	5 ± 7.5%	12.5 ± 1.7%	9 ± 2.6%	24.2 ± 0.6%	–	–
CO[C@H]1/C=C/O[C@@]2(C)Oc3c(C)c(O)c4c(O)c(c(/C=N/N5CCN(C)CC5)c(O)c4c3C2=O)NC(=O)/C(C)=C\C=C\[C@H](C)[C@H](O)[C@@H](C)[C@@H](O)[C@@H](C)[C@H](OC(C)=O)[C@@H]1C [Rifampicin]	–	-8.1 ± 11.5%	–	-5.6 ± 7.8%	–	-5.5 ± 4.2%	–	–	–
CC(=O)S[C@@H]1CC2=CC(=O)CC[C@]2(C)[C@H]2CC[C@@]3(C)[C@@H](CC[C@@]34CCC(=O)O4)[C@H]12 [Spironolactone]	–	-3.7 ± 5.3%	-4.8 ± 6.6%	-3.9 ± 5.2%	-11.5 ± 2.8%	3.2 ± 2.3%	-7.6 ± 2.1%	–	–
C=CC[C@@H]1/C=C(\C)C[C@H](C)C[C@H](OC)[C@H]2O[C@@](O)(C(=O)C(=O)N3CCCC[C@H]3C(=O)O[C@H](/C(C)=C/[C@@H]3CC[C@@H](O)[C@H](OC)C3)[C@H](C)[C@@H](O)CC1=O)[C@H](C)C[C@@H]2OC [Tacrolimus]	–	28.5 ± 3.7%	69.6 ± 4.8%	-10.3 ± 3.6%	13.4 ± 1.1%	-14.2 ± 1.2%	-11.8 ± 2.4%	–	–
Clc1ccccc1CN1CCc2sccc2C1 [Ticlopidine]	–	10.4 ± 4.4%	31.7 ± 10.4%	-4.3 ± 4.6%	31.4 ± 10.1%	-11.3 ± 8.3%	-33.5 ± 3.3%	–	–
Nc1nc(N)c2nc(-c3ccccc3)c(N)nc2n1 [Triamterene]	–	5.1 ± 8.8%	16.7 ± 1.6%	10.7 ± 2.1%	14.1 ± 0.5%	12.6 ± 3.2%	-10.6 ± 0.6%	–	–
COc1cc(Cc2cnc(N)nc2N)cc(OC)c1OC [Trimethoprim]	–	9.9 ± 4.2%	-16.3 ± 6.7%	-17 ± 1.9%	-13.8 ± 4.1%	-13.7 ± 2.8%	-68.1 ± 11.3%	–	–
CC(CN(C)C)CN1c2ccccc2CCc2ccccc21 (stereo not drawn) [Trimipramine]	–	1.3 ± 2.4%	24.2 ± 4.5%	1.8 ± 4.5%	34.1 ± 3.8%	-26.1 ± 11.5%	-13.4 ± 3.7%	–	–
O=C(O[C@H]1C[C@H]2CC[C@@H](C1)[N+]21CCCC1)C(O)(c1ccccc1)c1ccccc1 [Trospium Chloride]	–	27.1 ± 2.1%	-23.8 ± 4.5%	–	-22.5 ± 2.3%	–	3 ± 9.1%	–	–
CCCC(CCC)C(=O)O [Valproic acid]	–	12.6 ± 2.5%	-3.1 ± 6.1%	10.2 ± 1.4%	-9.5 ± 5.1%	-7.6 ± 4%	-47.5 ± 6%	–	–
COc1cc2nc(N3CCN(C(=O)c4ccco4)CC3)nc(N)c2cc1OC [prazosin]	–	9.8 ± 4.3%	9.9 ± 3.1%	–	9.7 ± 6.1%	36.9 ± 4.1%	5.1 ± 2.3%	38.2%	–
O=C(OC1C[C@H]2CC[C@@H](C1)[N+]21CCCC1)C(O)(c1ccccc1)c1ccccc1 (stereo partly drawn) [trospium]	–	–	–	–	–	–	–	28.6%	–
COc1ccc(CCN(C)CCCC(C#N)(c2ccc(OC)c(OC)c2)C(C)C)cc1OC (stereo not drawn) [verapamil]	–	29.3 ± 1.1%	27.5 ± 3.7%	–	–	24.1 ± 2.3%	44.2 ± 4.4%	–	85.3 µM
